Measurements published in patent EP2759295A1, “Foam cell specific Liver X Receptor (LXR) alpha agonist, SIRT1 inhibitors as well as p300 inhibitors as pharmaceutically active agents” (Max-Planck-Gesellschaft zur Förderung der Wissenschaften …, priority 2013, dated 2014).
Where two headings read alike, the source gives them in different places.

What was measured:
[1] = test system: macrophages; test: triglyceride content in macrophages (Triglyceride Assay Kit); assay type: cell-based, human; conditions: 10 µM, 48 h
Protocol: (§1) THP-1 monocytes were plated out into 24-well plates (Nunc) at a density of 2 x 10^5 cells/well. After differentiation and treatment cells were lysed with 100 µL lysis buffer (PBS, 0.25 M NaCl, 1% Triton X-100). Total and free cholesterol were determined using the colorimetric enzymatic Amplex Red Cholesterol Assay Kit (Invitrogen). Triglycerides were quantified by Triglyceride Assay Kit (BioVision). For normalisation protein content was determined with Pierce 660 nm Protein Assay Reagent (Thermo Scientific).

[2] = test system: macrophages; test: microarray genome-wide gene expression and GSEA in macrophages; assay type: cell-based, human; conditions: 10 µM
Protocol: Microarray analyses were performed according to instructions of Illumina's TotalPrep RNA Amplification Kit followed by hybridisation on HumanHT-12 v3 or HumanHT-12 v4 Expression BeadChips (illumina). Data analysis was performed with GenomeStudio V2011.1 (illumina). Differential expression analysis was performed on background-subtracted data with cubic spline normalization and Benjamini-Hochberg FDR correction. Significant data was considered to have a detection p-value of ≤ 0.01 and differential expression p-value of ≤ 0.05 according to Illumina's t-test error model. […] Bead array data were validated by quantitative real-time PCR. The Gene Distance Matrix was conducted in Euclidean space using the MeV 4.3 software tool [Saeed A.I. et al. Biotechniques (2003), 34, 374-378]. Gene Set Enrichment Analysis (GSEA) was performed as described elsewhere [Subramanian A. et al. Proc. Natl. Acad. Sci. (2005) 102, 15545-15550] with the following parameters: 1000 gene set permutations, weighted enrichment statistics, minimal gene set size of 5, and signal-to-noise metric. Enrichment of pathways was tested using the Reactome (v3.0) and the KEGG (v3.0) database from the Molecular Signature Database (MSigDB). Heatmaps were carried out with Mayday 2.8 [Battke F. et al. BMC Bioinformatics (2012), 11, 121]. […]

[3] = test system: foam cells; test: cholesterol content in foam cells (Amplex Red Cholesterol Assay); assay type: cell-based, human; conditions: 10 µM, 48 h
Protocol: as §1

[4] = test system: foam cells; test: triglyceride content in foam cells (Triglyceride Assay Kit); assay type: cell-based, human; conditions: 10 µM, 48 h
Protocol: as §1

[5] = test system: THP-1 macrophages; test: qPCR gene expression of LXRα target genes in THP-1 macrophages; assay type: cell-based, human; conditions: 10 µM
Protocol: (§2) For generating macrophages differentiation was induced by 10^-8 M Phorbol 12-myristate 13-acetate (PMA) (Sigma-Aldrich) for 48 h. Ligand treatment of macrophages was performed for further 24 h. To induce foam cell formation macrophages were treated for additional 48 h with 100 µg/mL modified human oxidized low density lipoprotein (oxLDL) obtained from Source BioScience (RP-048). Ligand treatment was performed simultaneously with foam cell formation. Cholesterol loading and treatment was controlled with Oil Red O staining (Alfa Aeser). To investigate ligand induced effects on cell proliferation of THP-1 macrophages CellTiter-Glo Luminescent Cell Viability Assay (Promega) was utilized.
(§3) Total RNA isolation and purification was performed by using the RNeasy Mini Kit (QIAGEN) and RNase-Free DNase Set (QIAGEN). cDNA was generated by reverse transcription using the High Capacity cDNA Reverse Transcription Kit (Applied Biosystems). Gene expression was quantified using the SYBR Green PCR Master Mix (Applied Biosystems) and ABI 7900HT Fast Real Time PCR System (Applied Biosystems). In each reaction 0.8 ng/µL cDNA and 0.2 µM primers were used. Gene expression was calculated with the ΔΔCt-method. β-Actin was used for normalisation.

[6] = test system: foam cells; test: microarray genome-wide gene expression and GSEA in foam cells; assay type: cell-based, human; conditions: 10 µM
Protocol: Microarray analyses were performed according to instructions of Illumina's TotalPrep RNA Amplification Kit followed by hybridisation on HumanHT-12 v3 or HumanHT-12 v4 Expression BeadChips (illumina). Data analysis was performed with GenomeStudio […].1 (illumina). Differential expression analysis was performed on background-subtracted data with cubic spline normalization and Benjamini-Hochberg FDR correction. […] Gene expression data were submitted in MIAME-compliant form to the NCBI Gene Expression Omnibus database (GSE39079). Bead array data were validated by quantitative real-time PCR. The Gene Distance Matrix was conducted in Euclidean space using the MeV 4.3 software tool [[…]. et al. Biotechniques (2003), 34, 374-378]. Gene Set Enrichment Analysis (GSEA) was performed as described elsewhere [Subramanian A. et al. Proc. Natl. Acad. Sci. […] Enrichment of pathways was tested using the Reactome (v3.0) and the KEGG (v3.0) database from the Molecular Signature Database (MSigDB). Heatmaps were carried out with […]. et al. BMC Bioinformatics (2012), 11, 121]. For presentation of treatment effects in the heatmap, the pathway normalized enrichment score (NES) was adjusted with the appropriate FDR as follows: adjustedNES = (1-FDR) x NES.

[7] = target: T1, LXRα ligand binding domain (LBD) (Homo sapiens, UniProt Q13133); test: dual luciferase reporter gene assay with LXRα ligand binding domain in HEK-293 cells; assay type: cell-based
T1 construct: expressed in transfected cells; host or cells: HEK-293
T1 sequence (Q13133 164-447): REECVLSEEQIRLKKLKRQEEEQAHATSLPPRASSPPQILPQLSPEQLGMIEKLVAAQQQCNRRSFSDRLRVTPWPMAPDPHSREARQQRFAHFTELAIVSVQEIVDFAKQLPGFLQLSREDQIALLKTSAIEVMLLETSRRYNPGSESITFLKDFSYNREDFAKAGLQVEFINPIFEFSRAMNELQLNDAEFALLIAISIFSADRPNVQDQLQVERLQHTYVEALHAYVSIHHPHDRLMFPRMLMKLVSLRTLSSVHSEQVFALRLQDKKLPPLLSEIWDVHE
Protocol: The ligand binding domain (LBD) of LXRα (amino acids 164 to 447) or LXRβ (amino acids 154 to 461) was cloned into pBIND [Renilla/Amp] vector (Promega). Selection and amplification were performed in E-coli cells. Purification of the plasmids was performed with a plasmid purification kit (Qiagen). For transfection HEK-293 cells were plated in 96-well plates (TPP) at a density of 3.5 x 10^4 cells/well for 24 h. To investigate the ligand binding on LXRα ligand binding domain, 0.04 ng of renilla luciferase coding plasmide pGL4.75 (Promega), 0.04 ng of LXRα-LBD/GAL4-DBD plasmide and 80 ng of firefly luciferase coding plasmide pGL4.31 (Promega) were used in a total volume of 200 µL for each well. In LXRβ binding assay 40 ng of LXRβ-LBD/GAL4-DBD plasmide were applied in each transfection mix. Transfection was carried out for 4 h with Lipofectamine 2000 Transfection Reagent (Invitrogen) in Opti-MEM medium (Invitrogen). Ligand treatment was performed at different concentrations for 24 h. For lysis and detection dual-luciferase reporter gene assay system (Promega) and POLARstar Omega (BMG LABTECH) were used.

[8] = test system: THP-1 macrophages; test: CellTiter-Glo viability assay in THP-1 macrophages; assay type: cell-based, human
Protocol: as §2

[9] = test system: foam cells; test: siRNA-mediated LXRα/β knockdown in foam cells with qPCR; assay type: cell-based, human; conditions: 10 µM ligand for 24 h
Protocol: Target specificity of ligand-dependent gene expression effects was investigated in siRNA-mediated LXRα and β-knockdown foam cells with subsequent qPCR or microarray analysis. Therefore, 2 x 10^5 THP-1 cells/well were differentiated in 24-well plate and induced to foam cells prior to knockdown as described above. Foam cells were transfected using TransIT-TKO transfection reagent (Mirus Bio), for combined knockdown with 15 nM LXRα Silencer Validated siRNA (Ambion, ID 5458) and 15 nM LXRβ Silencer Select Validated siRNA (Ambion, ID s14684) and with 30 nM LXRα or LXRβ for individual knockdowns, respectively. As control we used 30 nM Silencer Select Negative Control #1 (Ambion). Transfection was carried out for 48 h and followed by treatment with 10 µM ligand or vehicle control for 24 h.
as §3

[10] = test system: HepG2 cells; test: Western-Blot analysis of p53 (Lys382) acetylation in HepG2 cells; assay type: cell-based, human; conditions: 30 µM, 16 hours, 20 µM Etoposide
Protocol: HepG2 cells were seeded in 6-well plates (2.5 x 10^5 cells/well). 48 h later cells were treated with 20 µM Etoposide to induce p53 acetylation and directly afterwards with NP 1 or DMSO (VC) for 16 h. Cells were harvested and separated into cytosolic and nuclear fractions (NE-PER Nuclear and Cytoplasmic Extraction Reagents). Samples were denatured and SDS-PAGE was performed using NuPAGE Novex 4-12% Bis-Tris Gels. Proteins were blotted on nitrocellulose Hybond ECL membrane. Primary antibodies used were β-actin, p53 and acetyl-p53 (Lys382). Secondary antibodies were HRP-conjugated goat anti-rabbit IgG-HRP and goat anti-mouse IgG-HRP. Detection was performed with Western Lightning Plus-ECL solution. Membranes were stripped with Restore Plus Western Blot Stripping Buffer for 15 min.
Densitometry was performed in GelAnalyzer 2010a, which is a software tool to quantitatively measure the optical density. It provides accurate Western-Blot analysis and helps to detect differences which are not visible by the naked eye. Log(p53-Ac/p53-total) was calculated for every sample and statistical analysis was performed.

[11] = target: T2, SIRT1 (Homo sapiens, UniProt Q96EB6); test: MALDI-TOF MS deacetylation assay; assay type: biochemical
T2 construct: purchased Biomol International, Inc. / Enzo Life Sciences / BlueSky BioTech
T2 sequence (Q96EB6 1-747): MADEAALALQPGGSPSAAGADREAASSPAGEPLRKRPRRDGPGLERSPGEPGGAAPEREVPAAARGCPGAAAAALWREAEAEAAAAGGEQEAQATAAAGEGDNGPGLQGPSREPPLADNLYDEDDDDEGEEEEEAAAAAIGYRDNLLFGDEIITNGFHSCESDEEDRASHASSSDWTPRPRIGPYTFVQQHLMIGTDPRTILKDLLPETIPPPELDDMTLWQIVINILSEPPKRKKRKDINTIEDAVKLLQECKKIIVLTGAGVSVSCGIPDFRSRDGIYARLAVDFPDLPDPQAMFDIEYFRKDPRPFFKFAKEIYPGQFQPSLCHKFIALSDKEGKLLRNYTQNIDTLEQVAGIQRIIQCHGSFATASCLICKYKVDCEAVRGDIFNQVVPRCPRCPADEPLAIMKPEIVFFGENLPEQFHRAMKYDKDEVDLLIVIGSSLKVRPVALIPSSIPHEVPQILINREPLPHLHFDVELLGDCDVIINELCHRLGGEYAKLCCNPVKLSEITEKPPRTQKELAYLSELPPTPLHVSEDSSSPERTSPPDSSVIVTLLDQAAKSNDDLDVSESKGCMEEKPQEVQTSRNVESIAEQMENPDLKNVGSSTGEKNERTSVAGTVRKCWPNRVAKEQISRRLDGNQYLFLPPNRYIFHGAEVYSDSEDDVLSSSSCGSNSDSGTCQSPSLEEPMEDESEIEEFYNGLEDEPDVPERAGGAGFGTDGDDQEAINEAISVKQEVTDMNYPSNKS
Protocol: The assay was performed in a 20 µL reaction. 0.5 µM acetylated peptide and 120 µM NAD^+ in reaction buffer (50 mM Tris-acetate (pH 8), 137 mM NaCl, 2.7 mM KCI, 1 mM MgCl2, 5 mM DTT, 0.05 % BSA) were mixed with compound or DMSO (VC). Reactions were initiated by adding 10 nM of SIRT1. After incubation for 30 min at 37°C, reactions were stopped by formic acid and nicotinamide (f.c. 1% and 5 mM, respectively). Reactions were performed with histone H4 peptide and 1% DMSO unless stated otherwise. […]
Acetylated and deacetylated peptides were mixed at different ratios in the respective buffer including stop solution and reaction components except the enzyme. Purification, preparation and MS detection were conducted in parallel to reaction samples. CCs were generated for IC50 value determination but not for the screening.
Peptides were purified by Oasis HLB µElution Plates using a vacuum manifold [S. Sauer et al. J Chromatogr A (2004), 1049, 9-16]. Plate columns were conditioned by 70% ACN and equilibrated with 0.1% TFA. Samples were loaded, desalted by 0.1 % TFA and H2O and eluted in 70% ACN.
For ultra thin layer (UTL), supernatant of saturated CHCA in ACN / H2O (2:1) and 0.1% TFA. was mixed with isopropanol (1:3) and was spread on a ground steel target. After solvent evaporated excess of CHCA was removed from target surface with a tissue [D. Fenyo et al. J Vis Exp (2007), 192]. The matrix used for sample preparation contained saturated CHCA in ACN / 0.1% TFA (1:2) or ACN / H2O (1:2) depending on peptide size [S. L. Cohen et al. Anal Chem (1996), 68, 31-37]. HLB eluted samples and matrix were mixed (1:4) and spotted on the UTL.
Samples were measured automatically (AutoXecute software, Bruker Daltonik GmbH) using an ultraflex II MALDI-TOF mass spectrometer (Bruker Daltonik GmbH) in positive ion reflector mode. Laser power and detector gain were adjusted prior to every automatic run, which were performed in random walk movement.
For assay optimization and IC50 determination, 1000 shots were accumulated in 100 satisfactory shot steps (fuzzy control). At least one peak within a defined mass range had to fulfill the following criteria for the spectra to be accumulated: Absolute (min.) intensity: 800; S/N: 15; peak width: 0.2.
A script (Bruker Daltonik GmbH) was employed to analyze peptide peaks in a batch process (flexAnalysis software, Version 3.0, Bruker Daltonik GmbH). Percentage of de-/acetylation were calculated using the sum of the first four monoisotopic peak intensities. CC was generated by plotting experimental vs. calculated peptide acetylation. Measured sample values were interpolated with CC to determine de-/acetylation values (GraphPad Prism). When no CC was created, peak intensity ratios were generated. Verified single NP screening hits had to pass a peak ratio of ≤ 0.1 (deac/ac).
As IC50 values were not gained at initial velocity conditions, values were corrected by a conversion factor according to Wu et al. (Table 5) [G. Wu et al. J Biomol Screen (2003), 8, 694-700].

Structure (SMILES) | triglyceride level [1] | expression of genes involved in lipid metabolism processes [2] | total and esterified cholesterol content [3] | triglyceride levels [4] | expression of LXRα target genes (LXRα, SREBF1, ABCA1, APOE) [5] | Lipid metabolism processes (gene set enrichment) [6] | triacylglyceride biosynthesis (transcriptional regulation) [6] | Efficacy ([7]; +DMSO, reporter gene transcription vs. T09) [%] | specificity LXRα vs. LXRβ ([7]; reporter-gene assays with LXRα and LXRβ LBD) | no cytotoxic effects / no reduction of cellular viability up to [8] | gene expression of LXRα and ABCA1 after LXRα/β knockdown [9] | p53 acetylation in the nuclear fraction [10] | IC50 ([11]; Table 3, corrected values (see Table 5), read-out: IC50 values) [µM] | IC50 ([11]; corrected by conversion factor according to Wu et al., read-out: Corrected IC50) [µM] | IC50 ([11]; uncorrected, not at initial velocity conditions, read-out: Obtained IC50') [µM]
O=S(=O)(c1ccccc1)N(CC(F)(F)F)c1ccc(C(O)(C(F)(F)F)C(F)(F)F)cc1 [T09, reference compound] | stayed unchanged | activated | significant reduction of total and esterified cholesterol content | increased triglyceride levels | increased expression of LXRα target genes | comparably up-regulated | transcriptionally induced | 100 | bound to LXRα and LXRβ with similar affinity | no cytotoxic effects | significant reduction of LXRα and ABCA1 expression | – | – | – | –
COc1cc(-c2ccc(O)cc2)c(OC)c(O)c1C1=CC(=O)OC1CC(=O)O (stereo not drawn) [NP 1, 2-(3-(3,4'-dihydroxy-2,5-dimethoxybiphenyl-4-yl)-5-oxo-2,5-dihydrofuran-2-yl)acetic acid] | – | – | – | – | – | – | – | – | – | – | – | significant increase of p53 acetylation | 9.7 ± 0.7 | 9.7 ± 0.7 | 13 ± 1
